Here are results for 24 molecules from the Kinase Knowledgebase extract (Sharma et al. 2016).

One assay concerns the target PIK3CB (Human) (UniProt P42338). Nature of the assay: Assessment of PIK3CB Kinase Binding Activity.
The target in a further assay is PIK3CD (Human) (UniProt O00329). Nature of the assay: Assessment of PIK3CD Kinase Binding Activity.
Assay [1] deals with PIK3CA (human) (UniProt P42336). Nature of the assay: Assessment of PIK3CA Kinase Binding Activity.
The target in the next assay is PIK3CG (human) (UniProt P48736). The experiment in a line: Assessment of PIK3CG Kinase Binding Activity.
Assay [2] concerns the target PIK3CA (human) (UniProt P42336). Nature of the assay: Inhibition of PIK3CA Kinase Activity.
Assay [3] shares this target. Nature of the assay: Inhibition of A2780 Cell Proliferation.

Each structure is given as a SMILES string.

Sequence of PIK3CG (human) (P48736 whole entry, looked up): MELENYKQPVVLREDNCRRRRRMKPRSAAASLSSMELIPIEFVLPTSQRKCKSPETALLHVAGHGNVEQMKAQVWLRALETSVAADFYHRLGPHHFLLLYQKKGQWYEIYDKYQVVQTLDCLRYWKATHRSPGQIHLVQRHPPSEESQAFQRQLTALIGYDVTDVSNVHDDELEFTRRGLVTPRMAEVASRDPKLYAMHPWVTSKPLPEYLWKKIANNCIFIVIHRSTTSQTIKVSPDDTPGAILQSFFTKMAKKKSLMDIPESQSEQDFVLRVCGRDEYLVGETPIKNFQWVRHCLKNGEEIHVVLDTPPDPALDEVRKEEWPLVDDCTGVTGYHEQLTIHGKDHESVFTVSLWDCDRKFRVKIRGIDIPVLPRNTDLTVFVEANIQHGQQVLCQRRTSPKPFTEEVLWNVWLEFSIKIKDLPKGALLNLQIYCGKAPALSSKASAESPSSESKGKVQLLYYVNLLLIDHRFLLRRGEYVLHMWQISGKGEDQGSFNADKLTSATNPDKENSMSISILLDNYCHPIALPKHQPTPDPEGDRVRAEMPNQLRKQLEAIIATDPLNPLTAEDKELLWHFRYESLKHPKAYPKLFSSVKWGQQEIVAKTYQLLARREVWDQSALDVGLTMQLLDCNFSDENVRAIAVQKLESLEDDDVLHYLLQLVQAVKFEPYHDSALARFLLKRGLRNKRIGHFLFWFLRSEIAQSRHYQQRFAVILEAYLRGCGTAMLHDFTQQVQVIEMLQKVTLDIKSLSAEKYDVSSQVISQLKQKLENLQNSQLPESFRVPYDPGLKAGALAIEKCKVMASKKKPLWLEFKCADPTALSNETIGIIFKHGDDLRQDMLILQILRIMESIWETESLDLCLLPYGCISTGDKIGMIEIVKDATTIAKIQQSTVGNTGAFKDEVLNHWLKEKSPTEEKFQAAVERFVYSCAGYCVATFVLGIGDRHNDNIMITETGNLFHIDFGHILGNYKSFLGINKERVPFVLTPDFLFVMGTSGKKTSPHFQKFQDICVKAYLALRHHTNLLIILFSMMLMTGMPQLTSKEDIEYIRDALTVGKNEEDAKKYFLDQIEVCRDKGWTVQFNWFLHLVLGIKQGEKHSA
Sequence of PIK3CA (human) (P42336 whole entry, looked up): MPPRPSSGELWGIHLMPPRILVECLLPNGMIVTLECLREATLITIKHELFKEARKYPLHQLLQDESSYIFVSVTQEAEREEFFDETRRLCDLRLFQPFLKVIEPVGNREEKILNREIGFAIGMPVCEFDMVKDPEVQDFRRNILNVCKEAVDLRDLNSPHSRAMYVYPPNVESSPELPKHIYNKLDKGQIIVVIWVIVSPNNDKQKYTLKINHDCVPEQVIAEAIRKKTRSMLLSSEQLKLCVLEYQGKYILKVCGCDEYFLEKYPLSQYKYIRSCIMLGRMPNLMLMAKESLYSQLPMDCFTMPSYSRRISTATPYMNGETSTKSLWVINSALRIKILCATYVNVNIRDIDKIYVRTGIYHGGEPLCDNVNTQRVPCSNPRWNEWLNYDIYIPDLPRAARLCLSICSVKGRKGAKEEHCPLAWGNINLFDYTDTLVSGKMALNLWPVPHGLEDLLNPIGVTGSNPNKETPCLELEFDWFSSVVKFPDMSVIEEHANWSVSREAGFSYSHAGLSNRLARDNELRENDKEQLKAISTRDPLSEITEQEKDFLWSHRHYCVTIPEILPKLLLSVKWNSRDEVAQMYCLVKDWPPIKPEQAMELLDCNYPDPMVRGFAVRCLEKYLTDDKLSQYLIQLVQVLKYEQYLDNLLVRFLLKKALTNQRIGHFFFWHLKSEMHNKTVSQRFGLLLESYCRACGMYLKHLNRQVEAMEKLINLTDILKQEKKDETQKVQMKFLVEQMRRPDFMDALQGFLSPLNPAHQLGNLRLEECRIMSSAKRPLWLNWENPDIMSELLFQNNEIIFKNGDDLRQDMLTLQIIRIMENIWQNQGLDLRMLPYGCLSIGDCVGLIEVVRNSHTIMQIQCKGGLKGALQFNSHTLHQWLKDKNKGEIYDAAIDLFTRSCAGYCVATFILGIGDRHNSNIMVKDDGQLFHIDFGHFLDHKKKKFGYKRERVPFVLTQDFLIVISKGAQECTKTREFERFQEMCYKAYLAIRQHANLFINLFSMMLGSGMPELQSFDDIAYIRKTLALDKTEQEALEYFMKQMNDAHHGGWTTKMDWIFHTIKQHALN
Sequence of PIK3CB (Human) (P42338 whole entry, looked up): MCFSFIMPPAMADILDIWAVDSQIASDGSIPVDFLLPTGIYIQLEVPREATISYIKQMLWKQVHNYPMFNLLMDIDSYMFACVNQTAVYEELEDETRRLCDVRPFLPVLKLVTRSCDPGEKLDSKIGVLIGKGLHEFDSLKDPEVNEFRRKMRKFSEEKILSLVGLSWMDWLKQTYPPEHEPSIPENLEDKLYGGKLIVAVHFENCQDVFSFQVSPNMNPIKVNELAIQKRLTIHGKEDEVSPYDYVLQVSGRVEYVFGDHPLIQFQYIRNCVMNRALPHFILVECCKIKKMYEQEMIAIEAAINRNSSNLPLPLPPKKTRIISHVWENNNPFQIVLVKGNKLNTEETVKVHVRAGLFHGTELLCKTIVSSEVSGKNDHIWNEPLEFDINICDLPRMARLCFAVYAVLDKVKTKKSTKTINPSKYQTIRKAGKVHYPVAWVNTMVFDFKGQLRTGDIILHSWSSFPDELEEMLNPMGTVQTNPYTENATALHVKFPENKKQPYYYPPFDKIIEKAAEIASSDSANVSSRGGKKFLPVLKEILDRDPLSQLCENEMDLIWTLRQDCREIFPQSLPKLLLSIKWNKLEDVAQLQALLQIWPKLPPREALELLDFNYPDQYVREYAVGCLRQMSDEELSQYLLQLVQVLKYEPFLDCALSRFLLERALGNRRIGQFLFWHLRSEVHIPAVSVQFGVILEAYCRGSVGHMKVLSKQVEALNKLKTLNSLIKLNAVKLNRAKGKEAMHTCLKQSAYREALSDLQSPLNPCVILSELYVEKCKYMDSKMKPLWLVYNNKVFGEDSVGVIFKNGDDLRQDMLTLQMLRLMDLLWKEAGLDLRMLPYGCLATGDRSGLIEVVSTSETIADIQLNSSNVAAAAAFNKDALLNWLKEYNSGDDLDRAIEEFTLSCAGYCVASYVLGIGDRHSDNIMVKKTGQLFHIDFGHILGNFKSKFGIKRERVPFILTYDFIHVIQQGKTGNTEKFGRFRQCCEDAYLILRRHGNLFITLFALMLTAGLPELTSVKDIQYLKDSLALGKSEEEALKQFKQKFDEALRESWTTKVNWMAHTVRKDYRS
Sequence of PIK3CD (Human) (O00329 whole entry, looked up): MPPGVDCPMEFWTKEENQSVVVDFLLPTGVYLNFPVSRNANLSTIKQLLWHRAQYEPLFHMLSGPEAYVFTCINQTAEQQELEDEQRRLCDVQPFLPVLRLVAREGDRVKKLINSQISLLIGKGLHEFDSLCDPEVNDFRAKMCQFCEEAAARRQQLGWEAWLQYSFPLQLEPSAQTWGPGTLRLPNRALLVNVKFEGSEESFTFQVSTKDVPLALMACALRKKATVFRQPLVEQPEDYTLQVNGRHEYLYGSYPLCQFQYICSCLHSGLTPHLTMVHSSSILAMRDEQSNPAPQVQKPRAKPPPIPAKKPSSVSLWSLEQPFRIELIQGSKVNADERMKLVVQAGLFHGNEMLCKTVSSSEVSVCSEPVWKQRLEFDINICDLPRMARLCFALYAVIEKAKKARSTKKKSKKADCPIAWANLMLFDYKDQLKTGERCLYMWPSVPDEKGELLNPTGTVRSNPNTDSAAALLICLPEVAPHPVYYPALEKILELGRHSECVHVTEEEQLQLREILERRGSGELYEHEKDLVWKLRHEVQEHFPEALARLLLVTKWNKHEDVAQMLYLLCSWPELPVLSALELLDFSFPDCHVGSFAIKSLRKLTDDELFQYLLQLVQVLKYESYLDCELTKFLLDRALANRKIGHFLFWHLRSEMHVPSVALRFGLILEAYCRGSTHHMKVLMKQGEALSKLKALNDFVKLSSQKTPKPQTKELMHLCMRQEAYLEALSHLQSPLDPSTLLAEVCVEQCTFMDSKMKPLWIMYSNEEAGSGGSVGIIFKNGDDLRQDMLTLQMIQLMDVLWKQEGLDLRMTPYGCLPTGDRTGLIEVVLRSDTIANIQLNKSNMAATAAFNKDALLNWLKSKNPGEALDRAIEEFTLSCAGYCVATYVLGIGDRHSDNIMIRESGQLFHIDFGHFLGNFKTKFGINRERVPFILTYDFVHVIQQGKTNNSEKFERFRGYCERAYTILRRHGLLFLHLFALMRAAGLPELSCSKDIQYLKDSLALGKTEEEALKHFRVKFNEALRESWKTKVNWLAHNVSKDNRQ

For the molecule `CCc1nnn(CCNC(=O)Nc2cn3cc(-c4cnc(N)c(C(F)(F)F)c4)ccc3n2)n1`, the Ki at PIK3CB (Human), at PIK3CD (Human), at PIK3CA (human) [1] and at PIK3CG (human) was less than 1000 nM throughout.

Turning to `CCn1nnc(CCNC(=O)Nc2cn3cc(-c4cnc(N)c(C(F)(F)F)c4)ccc3n2)n1`, the Ki on PIK3CB (Human), on PIK3CD (Human), at PIK3CA (human) [1] and on PIK3CG (human) was less than 1000 nM throughout.

In the case of `Nc1ncc(-c2ccc3nc(NC(=O)NCCn4nnc(C5CC5)n4)cn3c2)cc1C(F)(F)F`, the Ki at PIK3CB (Human), on PIK3CD (Human), on PIK3CA (human) [1] and on PIK3CG (human) was less than 1000 nM each time.

Turning to `CC(C)n1nnc(CCNC(=O)Nc2cn3cc(-c4cnc(N)c(C(F)(F)F)c4)ccc3n2)n1`, the Ki on PIK3CB (Human), on PIK3CD (Human), on PIK3CA (human) [1] and on PIK3CG (human) was less than 1000 nM each time.

Regarding `CCc1cnc(CCNC(=O)Nc2cn3cc(-c4cnc(N)c(C(F)(F)F)c4)ccc3n2)o1`, the Ki at PIK3CB (Human), on PIK3CD (Human), on PIK3CA (human) [1] and at PIK3CG (human) was less than 1000 nM in each case.

Take `CC(C)n1nnc(CCNC(=O)Nc2cn3cc(-c4ccc(N)nc4)ccc3n2)n1`: the Ki on PIK3CB (Human) was less than 1000 nM; at PIK3CD (Human) it was less than 1000 nM; at PIK3CA (human) [1], less than 10000 nM; at PIK3CG (human), less than 1000 nM.

At PIK3CA (human) [2], `Nc1ncc(-c2ccc3nc(NC(=O)CCCN4CCOCC4)sc3c2)cn1` had an IC50 of less than 1000 nM. This molecule also came in with an EC50 on PIK3CA (human) [3] of less than 10000 nM.

Take `COc1c(-c2cnc(N)c(C(F)(F)F)c2)ccc2nc(NC(=O)C(F)(F)F)cn12`: the IC50 against PIK3CA (human) [2] is less than 25000 nM. At PIK3CA (human) [3], this molecule showed an EC50 of less than 25000 nM.

On PIK3CA (human) [2], `COCCOc1nc(-c2ccc3nc(NC(=O)C4CCN4C(C)=O)cn3c2)cnc1N` (stereo not given) returned an IC50 of less than 1000 nM. Besides, the EC50 at PIK3CA (human) [3] is less than 10000 nM.

In turn, `CCN(CC)CCOc1cc(-c2ccc3nc(NC(C)=O)cn3c2)cnc1N` showed an IC50 on PIK3CA (human) [2] of less than 10000 nM. In addition, the concentration giving a half-maximal response (EC50) at PIK3CA (human) [3] is less than 25000 nM.

Molecule `CC(=O)Nc1cn2cc(-c3cnc(N)c(-c4cccc(C(F)(F)F)c4)c3)ccc2n1` came in with an IC50 against PIK3CA (human) [2] of less than 1000 nM. On PIK3CA (human) [3], this molecule had an EC50 of less than 1000 nM.

Molecule `CC(C)(C)OC(=O)N1CC[C@@H](OCC(=O)Nc2cn3nc(-c4cnc(N)c(C(F)(F)F)c4)ccc3n2)C1` yielded an IC50 at PIK3CA (human) [2] of less than 1000 nM. The EC50 at PIK3CA (human) [3] was less than 1000 nM.

At PIK3CA (human) [2], `CN(CC(=O)Nc1cn2cc(-c3cnc(N)c(C(F)(F)F)c3)ccc2n1)C(=O)OC(C)(C)C` returned a concentration for half-maximal inhibition (IC50) of less than 1000 nM. The EC50 at PIK3CA (human) [3] is less than 10000 nM.

For `COc1cc(-c2ccc3nc(NC(C)=O)cn3n2)c(C)nc1N`, the IC50 against PIK3CA (human) [2] was less than 10000 nM. For the same molecule, the EC50 on PIK3CA (human) [3] is less than 25000 nM.

`CC(=O)Nc1cn2nc(-c3cnc(N)cn3)ccc2n1` yielded an IC50 against PIK3CA (human) [2] of less than 1000 nM. The same molecule yielded an EC50 at PIK3CA (human) [3] of less than 25000 nM.

The molecule `CC(=O)Nc1nc2ccc(-c3cnc(N)c(C(F)(F)F)c3)cn2c1C#Cc1ccc(C)cc1` showed an IC50 on PIK3CA (human) [2] of less than 1000 nM. Besides, on PIK3CA (human) [3], the EC50 is less than 10000 nM.

The molecule `CC(=O)Nc1nc2ccc(-c3cnc(N)c(C(F)(F)F)c3)cn2c1C(N)=O` came in with a half-maximal inhibitory concentration (IC50) at PIK3CA (human) [2] of less than 1000 nM. Moreover, the EC50 at PIK3CA (human) [3] was less than 10000 nM.

As for `Nc1ncc(-c2ccc3nc(NC(=O)c4ccccn4)cn3c2)cc1C(F)(F)F`, the IC50 at PIK3CA (human) [2] was less than 1000 nM. The molecule also showed an EC50 on PIK3CA (human) [3] of less than 25000 nM.

With `COC(=O)CCCC(=O)Nc1cn2nc(-c3cnc(N)c(C(F)(F)F)c3)ccc2n1`, the concentration for half-maximal inhibition (IC50) against PIK3CA (human) [2] is less than 1000 nM. The molecule further registered an EC50 at PIK3CA (human) [3] of less than 10000 nM.

In turn, `CC(=O)Nc1nc2ccc(-c3cnc(N)c(C(F)(F)F)c3)cn2c1Br` registered an IC50 at PIK3CA (human) [2] of less than 1000 nM. The molecule also displayed an EC50 on PIK3CA (human) [3] of less than 25000 nM.

Molecule `CC(=O)Nc1cn2cc(-c3cnc(N)c(C(=O)N4CCCC4)c3)ccc2n1` returned an IC50 at PIK3CA (human) [2] of less than 1000 nM. For the same molecule, the EC50 at PIK3CA (human) [3] is less than 25000 nM.

For the molecule `CC(=O)Nc1cn2cc(-c3cnc(N)c(Oc4cccc(F)c4)n3)ccc2n1`, at PIK3CA (human) [2], the IC50 is less than 1000 nM. For the same molecule, at PIK3CA (human) [3], the EC50 is less than 1000 nM.

At PIK3CA (human) [2], `CC(=O)Nc1cn2cc(-c3cnc(N)c(-c4ccccc4OC(F)(F)F)c3)ccc2n1` gave an IC50 of less than 1000 nM. Besides, the EC50 on PIK3CA (human) [3] is less than 10000 nM.

In the case of `Nc1ncc(-c2ccc3nc(NC(=O)COCc4ccccc4)cn3n2)cc1C(F)(F)F`, the IC50 at PIK3CA (human) [2] was less than 1000 nM. The molecule also had an EC50 at PIK3CA (human) [3] of less than 10000 nM.
